Reference: patent US4269843A, “N-Sec-alkyl analogs of norcodeine and normorphine and analgesic compositions and methods employing the normorphine derivatives” (priority 1980, dated 1981)

Assays:
[1] = tested on: mice; test: Mouse Jump Physical Dependence Assay; assay type: in vivo; settings: for Total Number Mice Affected (Jumped): i.p., 30 min; for number of mice jumping / withdrawal symptoms (in words): Naloxone 100 mg/kg on day 4, 30 minutes
From the text: (§1) Using mice, the compounds of this invention were subjected to the Tail Flick Analgesic Assay, the Writhing Analgesic Assay, the Straub Tail Antagonist Assay and the Mouse Jump Physical Dependence Assay, said assays being described in the literature as follows:
Saelens, J. K., Granat, F. R. and Sawyer, W. K. Arch. int. Pharmacodyn 190, 213-218 (1971).
Using mice, tests were made to determine the physical dependence capacity of compounds 7(S) 7(R) and 9 as measured by the Mouse Jump Test, this being a simple screening method to estimate the physical dependence capacity of analgesics. In this mouse jumping test, the mice are injected (i.p.) 5× on day 1 with gradually increasing dosages ranging from 8 to 100 mg/kg of body weight. On days 2 and 3 the mice (in all except one test) were given 100 mg/kg 4×. In the one test, dosage was raised to 200-300 mg/kg on day 2 and to 300 mg/kg on day 3. On day 4 all the mice received one shot (100 mg/kg) of the antogonist Naloxone. Following this all mice were caged for 30 minutes and a record was made of the number of mice jumping during this interval.

[2] = tested on: mice; test: Straub Tail Antagonist Assay (morphine-injected mice); assay type: in vivo, mouse; settings: for ED50: Mus musculus, dose which abolishes the response in 50% of the test mice, read-out: Inhibition of Straub tail response (ED50); for antagonist properties (in words): summary statement
From the text: as §1
Straub Tail Antagonist Assay
Blumberg, H. and Dayton, H. B. In Narcotic antagonists Advances in Biochemical Psychopharmacology, Vol. 8, Ed., Brande, M. C., Harris L. S.

[3] = tested on: mice; test: animal or person; assay type: in vivo; settings: Mus musculus, ip, phenylquinone i.p., dose which eliminates any writhing in 50% of the treated mice
From the text: as §1
Blumberg, H., Wolf, P. S. and Dayton, H. B., Proc. soc. Exper. Biol. Med., 118, 763 (1965).
The ED50 values given in Table 1 below represent the dose (μM/kg) which eliminates any such writhing in 50% of the treated mice.

[4] = tested on: mice; test: animal or person; assay type: in vivo, mouse; settings: for ED50: Mus musculus, mice, dose [micromoles per kg of body weight] which gives a group mean response time of 5 seconds, read-out: Tail Flick (ED50); for analgesic activity (in words): summary statement, mice tail flick and writhing assays
From the text: as §1
Tail Flick Analgesic Assay
D'Amour, F. E and Smith, D. L., J. Pharmacol. Exp. Therap. 72, 74-79 (1941)
Howes, J. F., Harris, L. S., Dewey, W. L. and Voyda, C. A., J. Pharmacol. Exp. Therap. 169, 23-28 (1969)
Dewey, W. L., Harris, L. S., Howes, J. F. and Nuite, J. A., J. Pharmacol. Exp. Therap. 175, 435-442 (1970)
The Tail Flick Analgesic Assay represents a test procedure in which heat from an intense light source is focused on the mouse's tail. When pain is detected by the mouse the tail gives a characteristic flicking response. In untreated controls the intervals from exposure to flick is about 2 seconds, while when using an effective analgesic the interval from exposure to flick is usually about 6 to 10 seconds. The ED50 values given in Table 1 below represent the dose [micromoles (μM) per kg of body weight] which gives a group mean response time of 5 seconds.

[5] = literature; cited from earlier work
[6] = cited from earlier work; for analgesic / agonist activity (in words): literature
[7] = 8-100 mg/kg day 1, 100 mg/kg days 2 and 3, 100 mg/kg Naloxone day 4, mice tested: 7(S) 20, 7(R) 12, 9 10, Morphine 10, Nalline 12

CC[C@@H](C)N1CC[C@]23c4c5ccc(O)c4O[C@H]2[C@@H](O)C=C[C@H]3[C@H]1C5 [7(R), N-2-butylnormorphine]
Total Number Mice Affected (Jumped) [1, 7]: 1 | number of mice jumping / withdrawal symptoms (in words) [1]: very small | ED50 ([2]; mice injected with morphine): 16.2 µmol/kg | ED50 [3]: 6.4 µmol/kg | ED50 [4]: 19 µmol/kg

CC[C@H](C)N1CC[C@]23c4c5ccc(O)c4O[C@H]2[C@@H](O)C=C[C@H]3[C@H]1C5 [7(S), N-2-butylnormorphine]
Total Number Mice Affected (Jumped) [1, 7]: 2 | Total Number Mice Affected (Jumped) ([1]; 8-100 mg/kg day 1, 200-300 mg/kg day 2, 300 mg/kg day 3, 100 mg/kg Naloxone day 4, 10 mice tested): 1 | number of mice jumping / withdrawal symptoms (in words) [1]: very small | ED50 ([2]; mice injected with morphine): 7.4 µmol/kg | ED50 [3]: 11 µmol/kg | ED50 [4]: 13.4 µmol/kg

C=C[C@@H](C)N1CC[C@]23c4c5ccc(O)c4O[C@H]2[C@@H](O)C=C[C@H]3[C@H]1C5 [8(R), N-α-methylallylnormorphine]
ED50 ([2]; mice injected with morphine): 11 µmol/kg | ED50 [3]: 13 µmol/kg | ED50 [4]: 44.5 µmol/kg

CCC(C)N1CC[C@]23c4c5ccc(O)c4O[C@H]2[C@@H](O)C=C[C@H]3[C@H]1C5 (stereo partly shown) [Compound 7, N-2-butylnormorphine]
antagonist properties (in words) [2]: antagonist properties indicative of low addiction potential | analgesic activity (in words) [4]: analgesic activities similar to morphine

C=CC(C)N1CC[C@]23c4c5ccc(O)c4O[C@H]2[C@@H](O)C=C[C@H]3[C@H]1C5 (stereo partly drawn) [Compound 8, N-α-methylallylnormorphine]
antagonist properties (in words) [2]: antagonist properties indicative of low addiction potential | analgesic activity (in words) [4]: analgesic activities similar to morphine

CC(C1CC1)N1CC[C@]23c4c5ccc(O)c4O[C@H]2[C@@H](O)C=C[C@H]3[C@H]1C5 (stereo partly drawn) [Compound 9, N-α-methylcyclopropylmethylnormorphine]
Total Number Mice Affected (Jumped) [1, 7]: 1 | number of mice jumping / withdrawal symptoms (in words) [1]: very small | ED50 ([2]; mice injected with morphine): 4.5 µmol/kg | antagonist properties (in words) [2]: antagonist properties indicative of low addiction potential | ED50 [3]: 0.69 µmol/kg | ED50 [4]: 12.4 µmol/kg | analgesic activity (in words) [4]: analgesic activities similar to morphine

CCC(CC)N1CC[C@]23c4c5ccc(O)c4O[C@H]2[C@@H](O)C=C[C@H]3[C@H]1C5 [Compound 10, N-3-pentylnormorphine]
ED50 ([2]; mice injected with morphine): 17.2 µmol/kg | antagonist properties (in words) [2]: antagonist properties indicative of low addiction potential | ED50 [3]: 2.3 µmol/kg | ED50 [4]: 19.9 µmol/kg | analgesic activity (in words) [4]: analgesic activities similar to morphine

CN1CC[C@]23c4c5ccc(O)c4O[C@H]2[C@@H](O)C=C[C@H]3[C@H]1C5 [Morphine]
Total Number Mice Affected (Jumped) [1, 7]: 10 | number of mice jumping / withdrawal symptoms (in words) [1]: all of the mice showed withdrawal symptoms | Inhibition of Straub tail response (result in words) ([2]; mice injected with morphine): No inhibition

CCCCCN1CC[C@]23c4c5ccc(O)c4O[C@H]2[C@@H](O)C=C[C@H]3[C@H]1C5 [N-amyl-, N-amylnormorphine]
antagonist activity (in words) [5]: devoid of antagonist properties | analgesic / agonist activity (in words) [6]: potent analgesic activity

CCCCN1CC[C@]23c4c5ccc(O)c4O[C@H]2[C@@H](O)C=C[C@H]3[C@H]1C5 [N-butyl-, N-butylnormorphine]
antagonist activity (in words) [5]: devoid of antagonist properties | analgesic / agonist activity (in words) [6]: potent analgesic activity

CCCCCCN1CC[C@]23c4c5ccc(O)c4O[C@H]2[C@@H](O)C=C[C@H]3[C@H]1C5 [N-hexylnormorphine]
antagonist activity (in words) [5]: devoid of antagonist properties | analgesic / agonist activity (in words) [6]: potent analgesic activity

CC(C)CN1CC[C@]23c4c5ccc(O)c4O[C@H]2[C@@H](O)C=C[C@H]3[C@H]1C5 [N-isobutylnormorphine]
antagonist activity (in words) [5]: morphine antagonists only

COc1ccc2c3c1O[C@H]1[C@@H](O)C=C[C@H]4[C@@H](C2)N(C(C)C)CC[C@@]341 [N-isopropyl-norcodeine]
analgesic / agonist activity (in words) [6]: inactive

CC(C)N1CC[C@]23c4c5ccc(O)c4O[C@H]2[C@@H](O)C=C[C@H]3[C@H]1C5 [N-isopropyl-normorphine]
antagonist activity (in words) [5]: little, if any, antagonist qualities | analgesic / agonist activity (in words) [6]: not a good agonist

CCCN1CC[C@]23c4c5ccc(O)c4O[C@H]2[C@@H](O)C=C[C@H]3[C@H]1C5 [N-propyl normorphine]
antagonist activity (in words) [5]: morphine antagonists only

C=CCN1CC[C@]23c4c5ccc(O)c4O[C@H]2[C@@H](O)C=C[C@H]3[C@H]1C5 [Nalorphine, N-allylnormorphine, reference compound]
Total Number Mice Affected (Jumped) [1, 7]: 0-3 | number of mice jumping / withdrawal symptoms (in words) [1]: very small | ED50 ([2]; mice injected with morphine): 1 µmol/kg

CC(C)=CCN1CCC2(C)c3cc(O)ccc3CC1C2C (stereo not shown) [pentazocine]
antagonist activity (in words) [5]: dual agonist-antagonist | analgesic potency relative to morphine ([6]; fraction of the potency of morphine): about one-fourth
